How the values were obtained:
IDO1 = biological target: T1, IDO1 (Homo sapiens, UniProt P14902); experiment: HeLa cell-based IDO1/kynurenine assay; settings: for inhibition at 30 µM: percentage inhibition at 30 μM, IFN-γ-treated HeLa cells, kynurenine in media; for IC50: HeLa cells, IFN-γ induced IDO1, kynurenine readout
T1 construct: a human cervical cancer cell line HeLa that endogenously expresses IDO1 upon IFN-γ treatment; endogenous in cells; host or cells: HeLa cells treated with human IFN-γ
T1 sequence (P14902 whole entry): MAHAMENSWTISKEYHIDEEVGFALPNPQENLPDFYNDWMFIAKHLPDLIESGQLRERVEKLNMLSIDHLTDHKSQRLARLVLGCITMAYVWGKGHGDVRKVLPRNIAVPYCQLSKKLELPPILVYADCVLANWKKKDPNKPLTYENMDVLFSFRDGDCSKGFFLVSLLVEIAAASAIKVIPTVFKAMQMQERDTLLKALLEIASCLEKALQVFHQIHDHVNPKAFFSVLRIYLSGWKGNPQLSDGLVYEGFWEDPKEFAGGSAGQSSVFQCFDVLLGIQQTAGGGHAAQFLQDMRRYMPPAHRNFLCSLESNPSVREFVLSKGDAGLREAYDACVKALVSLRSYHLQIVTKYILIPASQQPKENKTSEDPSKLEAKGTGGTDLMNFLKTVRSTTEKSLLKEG
Experimental: The main bioassays performed in the study, including HeLa cell-based IDO1/kynurenine assay, Western blot analysis, T cell proliferation and Treg cell differentiation experiments, were carried out as described previously.
It is well known that IDO1 is broadly expressed in human cancers and is induced by pro-inflammatory cytokines, such as interferon gamma (IFN-γ) and tumour necrosis factor alpha (TNF-α)[41]. Here we utilised a human cervical cancer cell line HeLa that endogenously expresses IDO1 upon IFN-γ treatment to evaluate the IDO1 inhibitory activity of the synthesised compounds by measuring kynurenine secreted into the media. […] Thus, we also employed this cellular assay to detect false positive IDO1 inhibitors and cytotoxic compounds by measuring HeLa cell viability. Clinical candidate navoximod was used as an assay control.

| inhibition at 30 µM (IDO1) [%] | melting point [°C] | IC50 (IDO1) [µM] | SMILES |
| --- | --- | --- | --- |
| 12 | – | – | Nc1ccc(S(=O)(=O)Nc2ccccc2)cc1 [4a, 4-Amino-N-phenylbenzenesulfonamide] |
| 10.8 | – | – | Cc1ccc(NS(=O)(=O)c2ccc(N)cc2)cc1 [4b, 4-Amino-N-(p-tolyl)benzenesulfonamide] |
| 7.4 | – | – | Nc1ccc(S(=O)(=O)NCc2ccccc2)cc1 [4c, 4-Amino-N-benzylbenzenesulfonamide] |
| -4.2 | 172 to 174 | – | Nc1ccc(S(=O)(=O)NCc2ccc(Cl)cc2)cc1 [4d, 4-Amino-N-(4-chlorobenzyl)benzenesulfonamide] |
| 2.3 | 119 to 121 | > 50 | Nc1ccc(S(=O)(=O)NCc2cccc(Cl)c2)cc1 [4e, 4-Amino-N-(3-chlorobenzyl)benzenesulfonamide] |
| 3.1 | – | – | Nc1ccc(S(=O)(=O)NCCc2ccccc2)cc1 [4f, 4-Amino-N-phenethylbenzenesulfonamide] |
| 62.5 | 116 to 118 | 22.4 | C=CC(=O)Nc1ccc(S(=O)(=O)NCc2ccccc2)cc1 [5a, N-(4-(N-Benzylsulfamoyl)phenyl)acrylamide] |
| 36 | 156 to 158 | 40.1 | C=CC(=O)Nc1ccc(S(=O)(=O)NCc2ccc(OC)cc2)cc1 [5b, N-(4-(N-(4-Methoxybenzyl)sulfamoyl)phenyl)acrylamide] |
| 40.4 | 190 to 192 | 36.2 | C=CC(=O)Nc1ccc(S(=O)(=O)NCc2ccc(Cl)cc2)cc1 [5c, N-(4-(N-(4-Chlorobenzyl)sulfamoyl)phenyl)acrylamide] |
| 55.2 | 154 to 156 | 26.3 | C=CC(=O)Nc1ccc(S(=O)(=O)NCCc2ccccc2)cc1 [5e, N-(4-(N-Phenethylsulfamoyl)phenyl)acrylamide] |
| 38.2 | 198 to 200 | 39.2 | C=CC(=O)Nc1ccc(S(=O)(=O)NCc2ccc(C(F)(F)F)cc2)cc1 [5f, N-(4-(N-(4-(Trifluoromethyl)benzyl)sulfamoyl)phenyl)acrylamide] |

The next lines start with the molecule.

| SMILES | inhibition at 30 µM (IDO1) [%] | melting point [°C] | IC50 (IDO1) [µM] |
| --- | --- | --- | --- |
| CC(=O)Nc1ccc(S(=O)(=O)Nc2ccccc2)cc1 [3a, N-(4-(N-Phenylsulfamoyl)phenyl)acetamide] | 3.9 | 204 to 206 | – |
| CC(=O)Nc1ccc(S(=O)(=O)Nc2ccc(C)cc2)cc1 [3b, N-(4-(N-(p-Tolyl)sulfamoyl)phenyl)acetamide] | 16.3 | – | – |
| CC(=O)Nc1ccc(S(=O)(=O)Nc2ccc(C(C)C)cc2)cc1 [3c, N-(4-(N-(4-Isopropylphenyl)sulfamoyl)phenyl)acetamide] | 5.9 | 186 to 188 | – |
| CC(=O)Nc1ccc(S(=O)(=O)Nc2cccc(C(C)C)c2)cc1 [3d, N-(4-(N-(3-Isopropylphenyl)sulfamoyl)phenyl)acetamide] | 14.6 | 158 to 160 | – |
| CC(=O)Nc1ccc(S(=O)(=O)NCc2ccccc2)cc1 [3e, N-(4-(N-Benzylsulfamoyl)phenyl)acetamide] | 2.5 | – | – |
| CC(=O)Nc1ccc(S(=O)(=O)NCc2ccc(Cl)cc2)cc1 [3f, N-(4-(N-(4-Chlorobenzyl)sulfamoyl)phenyl)acetamide] | 13.5 | 172 to 174 | – |
| CC(=O)Nc1ccc(S(=O)(=O)NCc2ccc(C(F)(F)F)cc2)cc1 [3g, N-(4-(N-(4-(Trifluoromethyl)benzyl)sulfamoyl)phenyl)acetamide] | 14.5 | 186 to 188 | – |
| CC(=O)Nc1ccc(S(=O)(=O)NCc2cccc(C(F)(F)F)c2)cc1 [3h, N-(4-(N-(3-(Trifluoromethyl)benzyl)sulfamoyl)phenyl)acetamide] | 7.8 | 154 to 156 | – |
| CC(=O)Nc1ccc(S(=O)(=O)NCCc2ccccc2)cc1 [3i, N-(4-(N-Phenethylsulfamoyl)phenyl)acetamide] | 5.9 | 130 to 132 | – |
